What was measured:
Type in all cases: cell-based
[1] = tested on: MEXF 462 human tumor xenograft cells; assay: Oncotest tumor clonogenic assay, MEXF 462; settings: colony formation, Melanoma MEXF 462, amelanotic melanoma, md, read-out: Absolute IC50
HT-1080 = assay: Cell proliferation assay (CellTiter-Glo), HT-1080; settings: Homo sapiens, HT-1080, 72 h
Description: (§1) Plate cells in a 96-well plate at 2000 cells/well in 100 μL of cell specific medium (for U87MG use DMEM, 10% FBS, 25 mM 4-(2-hydroxyethyl)-1-piperazineethanesulfonic acid (HEPES), 1.0 mM sodium pyruvate, and 0.1 mM Non Essential Amino Acids (ATCC Cat.#30-2002); for HT1080 use Eagle's MEM, 10% FBS (ATCC Cat.#30-2003); for H1975, A2780, SJSA-1 and 786-O use RPMI 1640, 10% FBS (ATCC Cat.#30-2001); for A204 use McCoy's 5A, 10% FBS (ATCC Cat.#30-2007) except in column 1 use medium only as the blank control. Incubate the plates overnight at 37° C. and 5% CO2. On the next day, prepare compound stocks at 1 mM in DMSO and serially dilute in DMSO in a 96-well round bottom polypropylene plate. Assay compounds at 10 concentrations in duplicate, 4 compounds per plate.
(§2) Transfer 4 μL of the DMSO serial dilutions to a 96 well plate and add 196 μL of culture medium to create a 10× stock for dosing. Gently transfer 11 μL of each dosing stock to the corresponding well of the cell plate resulting in a 0.2% DMSO concentration and a 111 μL final volume. […]
(§3) Prepared the CellTiter-Glo reagent (Promega, Cat: G7571) and add 100 µL to each well after the incubation is complete, homogenize the cells by mixing on an orbital shaker for 2 min and then incubate at RT for 10 min to allow the luminescent signal to stabilize. Record the luminescent raw data with a Wallac Victor V plate reader. […]

[2] = tested on: MEXF 276 human tumor xenograft cells; assay: Oncotest tumor clonogenic assay, MEXF 276; settings: colony formation, Melanoma MEXF 276, amelanotic melanoma, md, read-out: Absolute IC50
[3] = tested on: LXFL 1072 human tumor xenograft cells; assay: Oncotest tumor clonogenic assay, LXFL 1072; settings: colony formation, NSCLC LXFL 1072, large cell lung carcinoma, pd, read-out: Absolute IC50
P70S6(pT389) = assay: AlphaScreen SureFire p-p70S6 kinase (Thr389) in U87MG cells; settings: Homo sapiens, U-87 MG, 1 h, n = 4, read-out: P70S6(pT389) Absolute IC50
Description: This homogeneous assay format uses immuno-sandwich capture of the phosphorylated analyte and then detection with antibody-coated Alphascreen beads to generate an amplified signal.
Maintain U87MG cells in U87MG growth medium consisting of DMEM (GIBCO 11965-092) supplemented with 10% fetal bovine serum (FBS, GIBCO, 10091-141), 1% nonessential amino acids (GIBCO, 11140-050) and 1% sodium pyruvate (GIBCO, 11360-070). Harvest cells using standard cell culture procedures and then count using Vi-Cell. Plate 100 μL of U87MG cells in growth medium (50,000 cells/well) into Costar #3596 96 well plates and incubate overnight at 37° C., 5% CO2.
Incubate for one h at 37° C., then remove the medium and add 50 μL of 1× SureFire Lysis Buffer (TGR Biosciences SureFire® Kit component) to each well and incubate at room temperature for 10 min with gentle shaking Transfer 6 μL lysate and 10 μL reaction mixture (60 parts reaction buffer/10 parts activation buffer/1 part each of donor and acceptor beads, Perkin Elmer, 6760617R) to a 384 well proxiplate (Perkin Elmer, 6006280) for the p-p70S6 kinase (Thr389) and p-AKT(Ser473) assays. Seal the plate and incubate at RT for 4 h. […] Read the plates on a Perkin Elmer EnVision equipped with a TurboModule using standard AlphaScreen® settings (Ex680 nm and Em520-620 nm). […]

[4] = tested on: GXF 1172 human tumor xenograft cells; assay: Oncotest tumor clonogenic assay, GXF 1172; settings: colony formation, Gastric GXF 1172, signet-ring cell carcinoma, pd, read-out: Absolute IC50
A2780 = assay: Cell proliferation assay (CellTiter-Glo), A2780; settings: Homo sapiens, A2780, 72 h
Description: as §1, §2, §3

[5] = tested on: CXF 1103 human tumor xenograft cells; assay: Oncotest tumor clonogenic assay, CXF 1103; settings: CXF1103, colony formation, Colon CXF 1103, adeno carcinoma, pd, read-out: Absolute IC50
[6] = tested on: RXF 631 human tumor xenograft cells; assay: Oncotest tumor clonogenic assay, RXF 631; settings: colony formation, Renal RXF 631, hypernephroid adeno carcinoma, wd, read-out: Absolute IC50
[7] = tested on: CXF 280 human tumor xenograft cells; assay: Oncotest tumor clonogenic assay, CXF 280; settings: colony formation, Colon CXF 280, adeno carcinoma, pd, read-out: Absolute IC50
[8] = tested on: BXF 1218 human tumor xenograft cells; assay: Oncotest tumor clonogenic assay, BXF 1218; settings: colony formation, Bladder BXF 1218, transitional cell carcinoma, read-out: Absolute IC50
[9] = tested on: CXF 676 human tumor xenograft cells; assay: Oncotest tumor clonogenic assay, CXF 676; settings: colony formation, Colon CXF 676, adeno carcinoma, md, read-out: Absolute IC50

IC50 [1]: 156 nM
IC50 (HT-1080): 72 nM
IC50 [2]: 157 nM
IC50 [3]: 214 nM
IC50 (P70S6(pT389)): 10.6 nM
IC50 [4]: 141 nM
IC50 (A2780): 90 nM
IC50 [5]: > 200 nM
IC50 [6]: 80 nM
IC50 [7]: 7 nM
IC50 [8]: 48 nM
IC50 [9]: 350 nM
Structure (SMILES): CO[C@@H](C)Cn1c(=O)n(C)c2cnc3ccc(-c4cncc(C(C)(C)O)c4)cc3c21 [Example 1, 8-[5-(1-Hydroxy-1-methylethyl)pyridin-3-yl]-1-[(2S)-2-methoxypropyl]-3-methyl-1,3-dihydro-2H-imidazo[4,5-c]quinolin-2-one]

Reference: patent US8658668B2, “PI3 kinase/mTOR dual inhibitor” (Eli Lilly and Company, priority 2011, dated 2014)
